Laboratory results published in ChEMBL document CHEMBL5291721, “A preclinical secondary pharmacology resource illuminates target-adverse drug reaction associations of marketed drugs” (Nat Commun, 2023).

How the values were obtained:
[1] = target: T1, Alpha-2B adrenergic receptor (Homo sapiens, UniProt P18089)
T1 sequence (P18089 whole entry): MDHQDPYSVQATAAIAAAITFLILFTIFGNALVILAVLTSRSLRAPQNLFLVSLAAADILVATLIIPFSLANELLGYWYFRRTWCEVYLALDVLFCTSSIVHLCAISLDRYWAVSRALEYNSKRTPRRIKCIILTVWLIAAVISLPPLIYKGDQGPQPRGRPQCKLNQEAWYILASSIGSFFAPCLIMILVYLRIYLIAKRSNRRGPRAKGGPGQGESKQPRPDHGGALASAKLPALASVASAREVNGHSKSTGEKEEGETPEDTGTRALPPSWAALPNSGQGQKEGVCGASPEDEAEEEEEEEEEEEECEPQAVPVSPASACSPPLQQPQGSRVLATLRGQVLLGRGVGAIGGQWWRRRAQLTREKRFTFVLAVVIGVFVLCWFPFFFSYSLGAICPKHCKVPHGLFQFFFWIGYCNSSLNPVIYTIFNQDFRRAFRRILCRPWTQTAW

[2] = target: 5-hydroxytryptamine receptor 2B (Homo sapiens, UniProt P41595); assay type: functional, cell-based
[3] = target: T2, 5-hydroxytryptamine receptor 2C (Homo sapiens, UniProt P28335)
T2 sequence (P28335 whole entry): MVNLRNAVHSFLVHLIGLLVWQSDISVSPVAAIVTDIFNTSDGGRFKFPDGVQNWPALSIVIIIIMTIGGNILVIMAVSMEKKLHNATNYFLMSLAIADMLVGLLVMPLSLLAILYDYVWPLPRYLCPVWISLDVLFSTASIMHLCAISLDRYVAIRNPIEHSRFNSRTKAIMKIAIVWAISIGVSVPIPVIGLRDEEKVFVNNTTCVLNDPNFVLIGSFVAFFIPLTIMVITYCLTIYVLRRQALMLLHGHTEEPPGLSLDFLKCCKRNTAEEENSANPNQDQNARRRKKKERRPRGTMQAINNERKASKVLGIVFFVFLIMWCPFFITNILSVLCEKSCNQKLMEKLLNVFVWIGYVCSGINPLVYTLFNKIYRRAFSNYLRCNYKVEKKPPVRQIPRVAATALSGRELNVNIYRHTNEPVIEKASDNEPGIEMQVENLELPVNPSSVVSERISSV

[4] = target: Kappa-type opioid receptor (Homo sapiens, UniProt P41145)
[5] = target: T3, Prostaglandin G/H synthase 1 (Rattus norvegicus, UniProt Q63921); assay type: functional
T3 sequence (Q63921 whole entry): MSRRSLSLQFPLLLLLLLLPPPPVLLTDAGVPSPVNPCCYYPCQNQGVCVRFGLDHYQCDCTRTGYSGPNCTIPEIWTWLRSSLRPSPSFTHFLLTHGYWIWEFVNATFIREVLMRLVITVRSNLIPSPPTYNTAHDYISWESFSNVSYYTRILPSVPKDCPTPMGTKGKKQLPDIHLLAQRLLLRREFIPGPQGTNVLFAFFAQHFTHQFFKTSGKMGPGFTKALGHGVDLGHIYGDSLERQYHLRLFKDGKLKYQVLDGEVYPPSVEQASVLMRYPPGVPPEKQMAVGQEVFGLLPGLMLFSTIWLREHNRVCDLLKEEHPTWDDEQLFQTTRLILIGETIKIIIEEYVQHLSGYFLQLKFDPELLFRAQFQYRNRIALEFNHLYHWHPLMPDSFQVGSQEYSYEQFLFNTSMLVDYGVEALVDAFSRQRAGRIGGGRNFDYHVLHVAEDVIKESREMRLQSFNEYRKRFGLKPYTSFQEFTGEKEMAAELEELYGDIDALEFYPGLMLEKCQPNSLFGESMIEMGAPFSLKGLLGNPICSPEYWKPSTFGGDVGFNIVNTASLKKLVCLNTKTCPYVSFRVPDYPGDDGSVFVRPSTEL

[6] = target: T4, Amine oxidase [flavin-containing] A (Homo sapiens, UniProt P21397); assay type: functional
T4 sequence (P21397 whole entry): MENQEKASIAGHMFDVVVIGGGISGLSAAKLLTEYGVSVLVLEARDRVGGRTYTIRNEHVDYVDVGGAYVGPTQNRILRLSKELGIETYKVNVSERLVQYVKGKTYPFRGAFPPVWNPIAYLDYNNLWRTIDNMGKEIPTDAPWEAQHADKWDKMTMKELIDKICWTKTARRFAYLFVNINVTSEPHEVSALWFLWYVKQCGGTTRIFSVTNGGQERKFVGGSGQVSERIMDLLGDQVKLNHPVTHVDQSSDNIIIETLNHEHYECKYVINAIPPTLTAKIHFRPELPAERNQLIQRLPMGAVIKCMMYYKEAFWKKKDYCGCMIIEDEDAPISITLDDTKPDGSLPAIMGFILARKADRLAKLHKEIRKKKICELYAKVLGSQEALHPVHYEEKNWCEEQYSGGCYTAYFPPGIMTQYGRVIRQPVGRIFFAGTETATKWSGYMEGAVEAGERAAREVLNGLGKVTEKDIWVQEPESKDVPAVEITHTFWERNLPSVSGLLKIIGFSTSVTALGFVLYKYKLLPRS

Thromboxane A2 receptor = target: T5, Thromboxane A2 receptor (Homo sapiens, UniProt P21731)
T5 sequence (P21731 whole entry): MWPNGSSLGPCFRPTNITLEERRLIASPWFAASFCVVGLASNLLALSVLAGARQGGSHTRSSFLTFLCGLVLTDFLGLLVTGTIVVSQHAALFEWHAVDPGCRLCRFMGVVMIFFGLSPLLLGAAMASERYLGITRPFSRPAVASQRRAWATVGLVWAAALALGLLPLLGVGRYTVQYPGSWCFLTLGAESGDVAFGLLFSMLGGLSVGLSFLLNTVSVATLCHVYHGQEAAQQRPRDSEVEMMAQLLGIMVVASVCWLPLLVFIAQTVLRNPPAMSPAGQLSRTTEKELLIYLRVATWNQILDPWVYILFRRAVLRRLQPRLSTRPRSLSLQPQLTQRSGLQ

[7] = target: Gamma-aminobutyric acid receptor subunit alpha-1 (Rattus norvegicus, UniProt P62813)
Further: assay procedure not described here.

Gamma-aminobutyric acid receptor subunit alpha-1, sequence (P62813 whole entry): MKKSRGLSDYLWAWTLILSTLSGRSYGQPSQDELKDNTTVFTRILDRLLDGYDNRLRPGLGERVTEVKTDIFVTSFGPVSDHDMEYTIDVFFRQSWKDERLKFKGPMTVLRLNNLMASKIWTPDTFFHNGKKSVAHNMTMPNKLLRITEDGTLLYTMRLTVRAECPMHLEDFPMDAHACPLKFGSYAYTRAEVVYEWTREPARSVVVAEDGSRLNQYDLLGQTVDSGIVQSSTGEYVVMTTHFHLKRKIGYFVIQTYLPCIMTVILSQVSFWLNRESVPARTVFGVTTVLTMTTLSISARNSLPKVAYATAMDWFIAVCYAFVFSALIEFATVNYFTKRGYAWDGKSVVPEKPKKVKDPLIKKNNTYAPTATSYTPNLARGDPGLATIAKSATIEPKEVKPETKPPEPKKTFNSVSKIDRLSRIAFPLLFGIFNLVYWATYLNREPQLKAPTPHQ
Kappa-type opioid receptor, sequence (P41145 whole entry): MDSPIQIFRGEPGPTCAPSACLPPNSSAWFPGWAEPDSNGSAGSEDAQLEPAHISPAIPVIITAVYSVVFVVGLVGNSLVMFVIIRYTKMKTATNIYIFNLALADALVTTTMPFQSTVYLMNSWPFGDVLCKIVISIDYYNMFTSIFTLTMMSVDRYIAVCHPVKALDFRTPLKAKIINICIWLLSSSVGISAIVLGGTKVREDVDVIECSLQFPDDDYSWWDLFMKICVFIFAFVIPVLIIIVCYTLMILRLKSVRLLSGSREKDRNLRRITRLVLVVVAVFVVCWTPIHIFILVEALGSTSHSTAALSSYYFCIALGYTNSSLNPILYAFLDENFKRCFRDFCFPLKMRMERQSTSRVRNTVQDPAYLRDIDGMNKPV
5-hydroxytryptamine receptor 2B, sequence (P41595 whole entry): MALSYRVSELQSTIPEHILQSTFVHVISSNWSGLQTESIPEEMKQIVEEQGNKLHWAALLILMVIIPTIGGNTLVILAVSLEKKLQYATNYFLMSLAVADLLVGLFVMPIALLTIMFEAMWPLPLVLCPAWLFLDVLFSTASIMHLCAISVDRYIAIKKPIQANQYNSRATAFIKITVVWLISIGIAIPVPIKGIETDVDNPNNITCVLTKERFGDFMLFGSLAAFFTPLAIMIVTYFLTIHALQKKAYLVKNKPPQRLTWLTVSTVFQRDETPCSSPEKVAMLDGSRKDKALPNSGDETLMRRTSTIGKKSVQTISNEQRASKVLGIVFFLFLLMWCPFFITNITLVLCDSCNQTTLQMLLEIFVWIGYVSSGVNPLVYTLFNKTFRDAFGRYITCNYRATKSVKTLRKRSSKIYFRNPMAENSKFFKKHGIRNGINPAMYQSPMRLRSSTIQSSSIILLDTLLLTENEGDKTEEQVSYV

SMILES | AC50 [1] [µM] | AC50 [2] [µM] | AC50 [3] [µM] | AC50 [4] [µM] | AC50 [5] [µM] | AC50 [6] [µM] | AC50 (Thromboxane A2 receptor) [µM] | AC50 [7] [µM]
Oc1ccc2c(c1)[C@@]13CCCC[C@@]1(O)[C@@H](C2)N(CC1CCC1)CC3 [BUTORPHANOL] | > 30 | > 30 | > 30 | 0.025 | > 30 | > 30 | – | –
Cn1cnc2c(F)c(Nc3ccc(Br)cc3Cl)c(C(=O)NOCCO)cc21 [SELUMETINIB] | – | – | – | – | > 30 | > 10 | > 30 | –
CN(C(=O)c1c(O)c2ccccc2n(C)c1=O)c1ccccc1 [ROQUINIMEX] | – | – | – | – | > 30 | > 30 | – | –
Cc1ncc2n1-c1ccc(Cl)cc1C(c1ccccc1F)=NC2 [MIDAZOLAM] | > 10 | > 10 | > 30 | – | > 30 | > 10 | > 30 | > 10
C=C1/C(=C\C=C2/CCC[C@]3(C)[C@@H]([C@H](C)/C=C/[C@@H](O)C4CC4)CC[C@@H]23)C[C@@H](O)C[C@@H]1O [CALCIPOTRIENE] | > 30 | > 30 | > 30 | > 30 | 2.2 | > 30 | > 30 | > 30
C#CCOc1ccc(N)cc1C(=O)NCCCC [PARSALMIDE] | > 30 | > 30 | > 30 | > 30 | 2.3 | > 30 | > 30 | > 30
CCC(COC(=O)c1cc(OC)c(OC)c(OC)c1)(c1ccccc1)N(C)C (stereo unspecified) [TRIMEBUTINE] | 17 | > 30 | > 30 | 0.19 | > 30 | > 30 | > 30 | > 30
COc1ccc(-c2noc(CC(=O)O)c2-c2ccc(OC)cc2)cc1 [MOFEZOLAC] | > 30 | > 30 | > 30 | > 30 | 0.037 | – | > 30 | > 30
CC(=O)O[C@H](CC(=O)[O-])C[N+](C)(C)C [ACETYLCARNITINE] | > 30 | > 30 | > 30 | > 30 | > 10 | – | > 30 | > 30
O=C(O)c1ccccc1Nc1cc(Cl)ccc1C(=O)O [LOBENZARIT] | > 30 | > 30 | > 30 | > 30 | – | – | > 30 | > 30
C/C(=C\C(=O)OCCCCCCCCC(=O)O)C[C@@H]1OC[C@H](C[C@@H]2O[C@H]2[C@@H](C)[C@H](C)O)[C@@H](O)[C@H]1O [MUPIROCIN] | > 10 | > 10 | > 30 | > 10 | > 10 | > 10 | > 10 | > 10
C=C[C@@]1(C)CC(=O)[C@]2(O)[C@@]3(C)[C@@H](O)CCC(C)(C)[C@@H]3[C@H](O)[C@H](OC(C)=O)[C@@]2(C)O1 [COLFORSIN] | > 30 | > 30 | > 30 | > 30 | > 30 | > 30 | > 30 | > 30
Cn1c(=O)cc(N2CCC[C@@H](N)C2)n(Cc2ccccc2C#N)c1=O [ALOGLIPTIN] | > 10 | – | > 30 | 8.32 | > 30 | – | > 30 | –
CCN(CC)CCNC(=O)c1cc(S(C)(=O)=O)ccc1OC [TIAPRIDE] | – | 29 | > 30 | > 30 | > 30 | > 30 | > 30 | > 30
CCN1CCCC1CNC(=O)c1cc(S(=O)(=O)CC)c(N)cc1OC (stereo unspecified) [AMISULPRIDE] | 1.5 | – | > 30 | > 30 | 29 | > 30 | – | > 30
NC1CCN(c2nc3c(cc2F)c(=O)c(C(=O)O)cn3-c2ccc(F)cc2F)C1 (stereo unspecified) [TOSUFLOXACIN] | – | > 30 | > 30 | > 30 | > 10 | > 30 | > 30 | –
Nc1cc(-c2ccncc2)c[nH]c1=O [INAMRINONE] | – | > 10 | > 30 | > 10 | > 30 | > 10 | > 30 | > 10
CC1=C(C)C(=O)C(C(CCCCCC(=O)O)c2ccccc2)=C(C)C1=O (stereo unspecified) [SERATRODAST] | > 30 | > 30 | > 30 | > 30 | 1.14 | > 30 | – | > 30
COc1cc2ncnc(Nc3ccc(F)c(Cl)c3)c2cc1NC(=O)/C=C/CN1CCCCC1 [DACOMITINIB ANHYDROUS] | – | – | – | – | > 30 | > 30 | – | –
CC(=O)[C@]1(O)Cc2c(O)c3c(c(O)c2[C@@H](O[C@H]2C[C@H](N)[C@H](O)[C@H](C)O2)C1)C(=O)c1ccccc1C3=O [IDARUBICIN] | – | – | 9.3 | – | > 30 | > 30 | > 30 | > 30
O=C1CN=C(c2ccccc2)c2cc([N+](=O)[O-])ccc2N1 [NITRAZEPAM] | – | > 10 | > 30 | > 10 | > 10 | > 10 | > 10 | > 10
NC(=O)CN1CCCC1=O | – | > 30 | > 30 | > 30 | > 30 | > 30 | > 30 | > 30
O=C(O)CCNC(=O)c1ccccc1 [BETAMIPRON] | – | > 30 | > 30 | > 30 | > 10 | > 30 | > 30 | > 30
CCCCCCCCCCCCCCCCCCCCCC(=O)Nc1ccn([C@@H]2O[C@H](CO)[C@@H](O)[C@@H]2O)c(=O)n1 [ENOCITABINE] | > 30 | > 30 | – | > 30 | > 30 | > 30 | > 30 | > 30
